This assay has as its system S. cerevisiae tim23-1 mutant growth, luminescence. The assay can be described thus: tim23-1 yeast growth suppression potency – luminescence, uHTS hits, counter-screen for tim10-1 yeast inhibitor project, dose response (AID 504544). A general note: The purpose of a counterscreen is to sort out artefacts and off-target activity.

pIC50: −log10 of the molar value. Calls of active or inactive are those of the source. How the calls were made is not given here.

The term pIC50 denotes −log10 of the IC50, conventionally taken in molar units. The IC50 is the concentration that gives 50% inhibition.

As to `CC(C)CN(CC(C)C)C(=S)Nc1ccc(Cl)cc1`, the pIC50 is 4.26.
As to `COc1ccccc1N1C(=O)CC(Sc2n[nH]c(-c3cccc(C)c3)n2)C1=O` (centres undefined), the pIC50 is 5.11.
For the compound `Cc1cc(C)c(CSc2ncc(-c3ccc([N+](=O)[O-])cc3)[nH]2)c(C)c1`, the pIC50 was 4.76.
In the case of `CCN(CC)C1CC(=O)N(c2cccc(Cl)c2)C1=O` (centres undefined), the pIC50 is 5.61.
On to `CC1=C/C(=N\OS(=O)(=O)c2ccccc2)C=CC1=O`, for which the pIC50 was 6.57.
As to `COc1ccc2cc3cc(C(=O)NCCN4CCc5ccccc5C4)oc3nc2c1`, the pIC50 is 5.48.
On the same count and under the same terms, the result for `CN(C)CCCN(C(=O)c1cc2cc([N+](=O)[O-])ccc2s1)c1nc2cc3c(cc2s1)OCCO3` reads 4.87; that for `O=C(O)/C=C/C(=O)c1ccc2c(c1)CCc1ccccc1-2`, 5.29.
Same read-out and setting: the result for `CCOC(=O)/C=C/C(=O)OCC(=O)Nc1ccc([N+](=O)[O-])cc1` reads 5.13.
With `O=C(NNC(=S)Nc1cccc(C(F)(F)F)c1)c1cccc(Cl)c1`, the pIC50 was 4.59.
Consider `COc1ccc(Cl)cc1NC(=S)NCCc1ccc(F)cc1`, for which the pIC50 was 4.90.
On the same count and under the same terms, the same measure for `O=C(N/N=C/c1ccc[nH]1)c1cc(-c2ccc(Cl)cc2)nc2ccccc12`: 5.05; for `COc1ccc(C(=O)O/N=C(\N)c2ccc(Cl)cc2)cc1`: 5.15; for `Cc1ccc(NC(=O)c2ccc(Cl)c(N3C(=O)C=CC3=O)c2)cc1`: 5.38.
Regarding `N/C(=N\OC(=O)CCC1CCCC1)c1cccc([N+](=O)[O-])c1`, the pIC50 is 4.97.
On to `CNC(=O)c1nnsc1S(=O)(=O)c1ccc(Cl)cc1`, for which the pIC50 was 4.94.
In the case of `S=C(NCCCc1ccccc1)Nc1ccc(Cl)cc1`, the pIC50 was 5.15.
On to `Cc1ccc(CNC(=O)c2ccc(Cn3nc(C)c(Cl)c3C)o2)cc1`, for which the pIC50 was 4.76.
For `Cc1cc(C)cc(N2C(=O)CC(Sc3nnnn3-c3ccccc3)C2=O)c1` (centres undefined), the pIC50 was 5.90.
The same measure, in the same setting: the same measure for `Nc1nc(N)c(C=Nc2ccc(Br)cc2)c(Nc2ccc(Br)cc2)n1`: 4.85; for `O=c1c2ccccc2nc(/C=C/c2ccc([N+](=O)[O-])o2)n1CCCO`: 5.24.
For `c1ccc(Nc2cccc(Nc3ccccc3)c2)cc1`, the negative-log IC50 (pIC50) was 4.96.
With `Cc1ccc(NC(=S)/N=C(\N)Nc2nc(C)c3cc(C)ccc3n2)c(C)c1`, the pIC50 is 4.77.
Turning to `COc1ccc(-c2sc3cc4c(cc3c2C#CC2(N)CCCCC2)OCO4)cc1`, the pIC50 is 5.03.
As for `CCCCc1ccc(NC(=S)Nc2ccc(Nc3ccc(OC)cc3)cc2)cc1`, the pIC50 is 4.52.
In the case of `CCOC(=O)c1ccc(N=c2ssnc2Cl)cc1`, the pIC50 is 5.65.
The same measure, in the same setting: the result for `CCOC(=O)c1ccc(NC(=O)CC2OCCN(CC)C2=O)cc1` (centres undefined) reads 5.69; that for `Cc1ccc(F)c([C@H]2[C@@H]3C=CCC[C@@]3(C)C(=O)N2Cc2ccccc2)c1`, 4.74.
Take `COc1ccc(-c2cc(C3CC3)nc3sc(C#N)c(N)c23)cc1`: the pIC50 was 5.16.
For the compound `O=c1oc2ccccc2c(O)c1/C=C1\C=Nc2ccccc21`, the pIC50 was 5.26.
Same read-out and setting: the same measure for `N/C(Cc1ccc(Cl)cc1Cl)=N\OC(=O)Cc1ccc(Cl)cc1`: 5.86.
Turning to `Cn1c(NCCCO)nc2c(c1=O)C1(CCCCC1)Cc1ccccc1-2`, the pIC50 was 5.06.
As to `COC(=O)c1c(N2C(=O)CC(Sc3ccccc3C(=O)O)C2=O)sc2c1CCCC2` (centres undefined), the pIC50 is 5.50.
In the case of `COc1ccc(Br)cc1[C@H]1[C@H]2C=CC[C@@H](C)[C@@H]2C(=O)N1Cc1ccccc1`, the pIC50 is 4.79.
For `CC(C)C(=O)N1CCN(c2ccccc2NC(=O)c2ccc([N+](=O)[O-])o2)CC1`, the pIC50 is 5.05.
With `Cc1onc(-c2ccc3c(c2)OCO3)c1-c1ccc2[nH]ccc2c1`, the pIC50 is 4.97.
Regarding `CCCOc1ccc(N2C(=O)CC(N3CCC(O)(c4cccc(C(F)(F)F)c4)CC3)C2=O)cc1` (centres undefined), the pIC50 is 5.13.
Regarding `CCCn1c(CC)nc([N+](=O)[O-])c1S(=O)(=O)c1ccccc1`, the pIC50 was 5.18.
Consider `Cc1nonc1C1CCCN1C(=O)c1cc(COc2cccc(C(F)(F)F)c2)on1` (centres undefined), for which the pIC50 is 4.72.
Still for that read-out and setting: the same measure for `Cc1ccc(S(=O)(=O)c2nc(S(C)(=O)=O)sc2N2CCCCC2C)cc1` (centres undefined): 4.93; for `COc1ccc(/C=C/C(=O)c2ccccc2)cc1Cn1nnc2ccccc21`: 5.10.
For `CC(C)NC(=S)N/N=C1\CCCCc2ccccc21`, the pIC50 was 4.96.
As to `CCOC(=O)/C=C/C(=O)Nc1cccc([N+](=O)[O-])c1`, the pIC50 is 5.58.
Consider `COc1cc(/C=C/c2ccc3cccc(O)c3n2)c(Br)cc1O`, for which the pIC50 is 4.74.
As for `CCCCCCCCCCOC(=O)Cn1c(COc2ccccc2OC)[n+](C)c2ccccc21`, the pIC50 was 4.92.
Consider `NC(=NCCCCCCN=C(N)/N=C(\N)Nc1ccc(Cl)cc1)/N=C(\N)Nc1ccc(Cl)cc1`, for which the IC50 is > 100 µM (inactive).
For the compound `CCOC(=O)c1c(OCC)[nH]c2c1cc(O)c1ccccc12`, the pIC50 is 4.77.
Turning to `CC(C)(C)OC(=O)N[C@@H](Cc1ccccc1)c1nnc(S(=O)(=O)Cc2cccc(F)c2)o1`, the pIC50 is 5.64.
As to `Cc1ccc(NC(=O)c2cc(S(=O)(=O)NCCC3=CCCCC3)ccc2F)cc1`, the pIC50 is 4.48.
Consider `c1ccc(Nc2cccc(Nc3ccccc3)n2)cc1`, for which the pIC50 was 5.04.
The same measure, in the same setting: the same measure for `Nc1c(C(=O)Nc2ccccc2)c2nc3ccccc3nc2n1CCCN1CCOCC1`: 4.90; for `CN=C(Nc1cc(Cl)ccc1Cl)SC1CC(=O)N(c2ccc(C(=O)OC)cc2)C1=O` (centres undefined): 4.81.
Turning to `O=C(/C=C/c1ccc2c(c1)OCCCO2)c1ccccc1O`, the pIC50 is 4.74.
With `COc1cc(OC)c(C(=O)O/N=C(\N)c2ccc(C)cc2)cc1OC`, the pIC50 was 5.16.
Take `CC(C)(C)c1ccc(CN2N=Nc3ccccc3S2(=O)=O)cc1`: the pIC50 is 5.25.
In the case of `CCSc1nc2ccccc2n1C(=O)/C=C\c1ccc(OC)c(OC)c1`, the pIC50 is 4.93.
On the same count and under the same terms, the result for `O=C1C2C3C=CC(CO)(O3)C2C(=O)N1c1ccccc1-c1ccccc1` (centres undefined) reads 5.74.
As for `O=C(OCn1ncc(Br)c(Br)c1=O)c1ccccc1Cl`, the pIC50 was 5.68.
Consider `O=C(NC(=S)NNC(=O)c1ccccc1[N+](=O)[O-])c1ccc(Br)cc1`, for which the pIC50 was 4.90.
Regarding `Cc1nc(Nc2ccccc2)sc1-c1ccccc1`, the pIC50 was 4.54.
The same measure, in the same setting: the result for `COc1ccc(-c2nncnn2)cc1` reads 5.41; that for `O=C(c1ccc2c3n(nc2c1)-c1ccccc1CO3)N1CCCCC1`, 5.01.
For `O=S(=O)(CCN(CCS(=O)(=O)C(F)(F)F)CC1CCCO1)C(F)(F)F` (centres undefined), the pIC50 was 4.95.
As for `CC(=O)N1CCN(c2cc(N3CCc4ccccc4C3)c(F)cc2[N+](=O)[O-])CC1`, the pIC50 was 4.46.
Still for that read-out and setting: the result for `O=C(NNC(=S)Nc1cccc(C(F)(F)F)c1)c1ccc(Cl)cc1Cl` reads 5.15; that for `O=C(/C=C\c1ccc(-c2ccccc2)o1)c1ccccc1`, 5.52.
On the same count and under the same terms, the same measure for `Cc1cc([N+](=O)[O-])ccc1-c1ccc(C2Nc3ccccc3C(=O)N2O)o1` (centres undefined): 4.74; for `Cc1ccc(OCC(=O)O/N=C(\N)Cc2ccc(Cl)cc2)cc1`: 4.21; for `COc1ccc(-c2[nH]ncc2N=Nc2ccccc2)cc1`: 5.03.

Values taken from PubChem BioAssay AID504544 (Sanford-Burnham Center for Chemical Genomics, 2011).
